Measurements: PubChem BioAssay AID2060342 (Molecular Pharmacology Branch, DTP, NCI, 2025)

Tested on: 171881-019-R-J1-PDC multicell spheroid viability
Assay: Anticancer human tumor 171881-019-R-J1-PDC patient-derived invasive breast carcinoma cell line growth inhibition [IpAb]
Details: for IC50: curve of first compound; for viability, T/C: stronger effect = lower value
Text: Combinatorial screen of targeted agents with ipatasertib and abemaciclib in multi-cell type tumor spheroids
A high-throughput screen of multi-cell type tumor spheroids was designed to identify active combinations of targeted small molecules and ipatasertib or abemaciclib. Complex spheroids include a stromal component modeled by human endothelial cells (HUVEC) and fibroblasts modeled by human mesenchymal stem cells (MSCs). The concentration ranges selected for each drug and investigational agent were based upon clinically achievable concentrations if the clinical Cmax of the agent was known.
Compounds. The drugs and investigational agents: ipatasertib (NSC767898), abemaciclib(NSC768073), selumetinib (NSC741078), trametinib (758246), adavosertib (NSC754352), everolimus (NSC733504), sapanisertib (NSC764658), vemurafenib (NSC761431), venetoclax (NSC766270), copanlisib (NSC809693), apelisib (NSC765974), palbociblib (NSC758247), vemurafenib (NSC761431), dabrafenib (NSC764134), ravoxertinib (NSC781343), BMS-387032 (NSC767048), sotorasib (NSC818433), talazoparib (NSC767125) and afursertib (NSC778305), were obtained from the National Cancer Institute (NCI) Developmental Therapeutics Program Chemical Repository. The FDA-approved anticancer drug set is available from the NCI Developmental Therapeutics Program. […] The stock solutions were prepared in dimethyl sulfoxide (DMSO, Sigma-Aldrich, St. Louis, MO, cat. D2650) at 800-fold the tested concentration and stored at -70 degrees C prior to their use. All drugs and investigational agents were tested over a range starting from a high concentration at or near the clinical Cmax and decreasing in half-log increments. If the clinical Cmax for an agent had not been determined, the highest concentration tested was 10 microM.
NCI60 Cell Culture. NCI60 cell lines were obtained from the NCI Developmental Therapeutics Program Tumor Repository. For each lot of cells, the Repository performed Applied Biosystems AmpFLSTR Identifiler testing with PCR amplification to confirm consistency with the published Identifier STR profile for each cell line. Cells were kept in continuous culture for no more than 20 passages. The optimal seeding densities for each of the cell lines at each time point assessed were determined prior to performing the concentration response studies. Briefly, the NCI60 human tumor lines were grown as monolayers in RPMI 1640 medium supplemented with 10% FBS and 2 mmol/L L-glutamine.
An additional 9 lines were from the NCI60 cell line panel including MDA-MB-231 breast carcinoma, MDA-MB-468 breast carcinoma, MCF7 breast carcinoma, Hs578T breast carcinoma, MALME-3M melanoma, SK-MEL-2 melanoma, SK-OV-3 ovarian carcinoma, DU-145 prostate carcinoma, PC-3 prostate carcinoma, all cell lines along with major genetic alterations are listed on Table 2. Pooled donor human umbilical vein endothelial cells (HUVEC, Lonza, cat. CC-2519) and human mesenchymal stem cells (hMSC, Lonza, cat. PT-2501) were purchased from Lonza (Walkersville, MD).
PDMR cell lines were grown in complete medium (DC medium): Dulbecco's modified Eagle's medium (DMEM)/F12 supplemented with 5% fetal bovine serum (FBS), 2 mM L-glutamine, 100 U/mL penicillin and 100 µg/ml streptomycin, 0.4 µg/ml hydrocortisone, 10 ng/ml epidermal growth factor (EGF) recombinant human protein, 24 µg/mL adenine, and 0.1 mg/mL primocin. During culture from frozen stock vials, PDMR cells were cultured in the same medium containing 10 µM Y-27632 (see Table 3). The PDCs were cultured in complete DMEM/F12 media without 10 microM Y-27632 dihydrochloride for at least two passages prior to the screen. The pooled donor HUVEC and hMSC were cultured in endothelial cell growth medium 2 (PromoCell, Heidelberg, Germany, cat. C-22011) and mesenchymal stem cell growth medium 2 (PromoCell, cat. C-28009), respectively. For all experiments, HUVEC and hMSC were used at passages </=5.
[…]

[1] = second compound 0.1 µM, first compound 0.0316 µM
[2] = second compound 0.1 µM, first compound 0.1 µM
[3] = second compound 0.1 µM, first compound 0.316 µM
[4] = second compound 0.1 µM, first compound 1 µM
[5] = second compound 0.1 µM, first compound 3.16 µM
[6] = second compound 0.1 µM, first compound 10 µM
[7] = second compound 0.316 µM, first compound 0.0316 µM
[8] = second compound 0.316 µM, first compound 0.1 µM
[9] = second compound 0.316 µM, first compound 0.316 µM
[10] = second compound 0.316 µM, first compound 1 µM
[11] = second compound 0.316 µM, first compound 3.16 µM
[12] = second compound 0.316 µM, first compound 10 µM
[13] = second compound 1 µM, first compound 0.0316 µM
[14] = second compound 1 µM, first compound 0.1 µM
[15] = second compound 1 µM, first compound 0.316 µM
[16] = second compound 1 µM, first compound 1 µM
[17] = second compound 1 µM, first compound 3.16 µM
[18] = second compound 1 µM, first compound 10 µM
[19] = second compound 3.16 µM, first compound 0.0316 µM
[20] = second compound 3.16 µM, first compound 0.1 µM
[21] = second compound 3.16 µM, first compound 0.316 µM
[22] = second compound 3.16 µM, first compound 1 µM
[23] = second compound 3.16 µM, first compound 3.16 µM
[24] = second compound 3.16 µM, first compound 10 µM
[25] = second compound 10 µM, first compound 0.0316 µM
[26] = second compound 10 µM, first compound 0.1 µM
[27] = second compound 10 µM, first compound 0.316 µM
[28] = second compound 10 µM, first compound 1 µM
[29] = second compound 10 µM, first compound 3.16 µM
[30] = second compound 10 µM, first compound 10 µM
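Further: spheroids exposed to the agents for seven days before readout.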

| SMILES | IC50 (second compound 0.1 µM) [nM] | IC50 (second compound 0.316 µM) [nM] | IC50 (second compound 1 µM) [nM] | IC50 (second compound 3.16 µM) [nM] | IC50 (second compound 10 µM) [nM] | viability, T/C [1] [%] | viability, T/C [2] [%] | viability, T/C [3] [%] | viability, T/C [4] [%] | viability, T/C [7] [%] | viability, T/C [8] [%] | viability, T/C [9] [%] | viability, T/C [10] [%] | viability, T/C [13] [%] | viability, T/C [14] [%] | viability, T/C [15] [%] | viability, T/C [16] [%] | viability, T/C [19] [%] | viability, T/C [20] [%] | viability, T/C [21] [%] | also measured |
| --- | --- | --- | --- | --- | --- | --- | --- | --- | --- | --- | --- | --- | --- | --- | --- | --- | --- | --- | --- | --- | --- |
| CC1(C)CCC(CN2CCN(c3ccc(C(=O)NS(=O)(=O)c4ccc(NCC5CCOCC5)c([N+](=O)[O-])c4)c(Oc4cnc5[nH]ccc5c4)c3)CC2)=C(c2ccc(Cl)cc2)C1 + CC(C)NCC(C(=O)N1CCN(c2ncnc3c2C(C)CC3O)CC1)c1ccc(Cl)cc1 | 5670 | 2840 | < 31.6 | < 31.6 | < 31.6 | 136 | 114 | 120 | 107 | 103 | 96.8 | 83.1 | 71.3 | 37.2 | 31.9 | 34.8 | 32.3 | 10.9 | 11.4 | 11.3 | viability, T/C [5]: 84.3%; viability, T/C [6]: 18.7%; viability, T/C [11]: 48.7%; viability, T/C [12]: 14.8%; viability, T/C [17]: 30.3%; viability, T/C [18]: 12.3%; viability, T/C [22]: 11.5%; viability, T/C [23]: 12.6%; viability, T/C [24]: 5.33%; viability, T/C [25]: 8.52%; viability, T/C [26]: 5.8%; viability, T/C [27]: 5.75%; viability, T/C [28]: 6.5%; viability, T/C [29]: 5.63%; viability, T/C [30]: 2.85% |
| COc1c(OCCCN2CCOCC2)ccc2c3n(c(=NC(=O)c4cnc(N)nc4)nc12)CCN3 + CC(C)NCC(C(=O)N1CCN(c2ncnc3c2C(C)CC3O)CC1)c1ccc(Cl)cc1 | 16.4 | 5.9 | < 3.16 | < 3.16 | < 3.16 | 25.8 | 3.96 | 1.09 | 1.15 | 16.9 | 3.36 | 0.91 | 0.95 | 8.13 | 2.24 | 0.79 | 1.24 | 3.83 | 1.68 | 0.83 | viability, T/C (second compound 0.1 µM, first compound 0.00316 µM): 94.5%; viability, T/C (second compound 0.1 µM, first compound 0.01 µM): 68.5%; viability, T/C (second compound 0.316 µM, first compound 0.00316 µM): 61.5%; viability, T/C (second compound 0.316 µM, first compound 0.01 µM): 40%; viability, T/C (second compound 1 µM, first compound 0.00316 µM): 25.2%; viability, T/C (second compound 1 µM, first compound 0.01 µM): 15.6%; viability, T/C (second compound 3.16 µM, first compound 0.00316 µM): 9.51%; viability, T/C (second compound 3.16 µM, first compound 0.01 µM): 6.39%; viability, T/C [22]: 0.67%; viability, T/C (second compound 10 µM, first compound 0.00316 µM): 5.07%; viability, T/C (second compound 10 µM, first compound 0.01 µM): 3.81%; viability, T/C [25]: 2.45%; viability, T/C [26]: 1.59%; viability, T/C [27]: 0.62%; viability, T/C [28]: 0.82% |
| Cc1nc(NC(=O)N2CCCC2C(N)=O)sc1-c1ccnc(C(C)(C)C(F)(F)F)c1 (stereo not given) + CC(C)NCC(C(=O)N1CCN(c2ncnc3c2C(C)CC3O)CC1)c1ccc(Cl)cc1 | 651 | 294 | < 31.6 | < 31.6 | < 31.6 | 125 | 108 | 68.4 | 38.1 | 71.5 | 58.9 | 52.8 | 18.8 | 24.8 | 24.1 | 21.3 | 13.5 | 10.7 | 7.22 | 7.33 | viability, T/C [5]: 15.5%; viability, T/C [6]: 1.41%; viability, T/C [11]: 10.7%; viability, T/C [12]: 1.29%; viability, T/C [17]: 4.39%; viability, T/C [18]: 0.88%; viability, T/C [22]: 5.54%; viability, T/C [23]: 3.24%; viability, T/C [24]: 0.74%; viability, T/C [25]: 5.48%; viability, T/C [26]: 4.17%; viability, T/C [27]: 4.3%; viability, T/C [28]: 2.72%; viability, T/C [29]: 1.77%; viability, T/C [30]: 0.6% |
